The values below come from patent publication US8097619B2, “Inhibitors of cyclin-dependent kinases, compositions and uses related thereto” (Agennix USA Inc., priority 2003, dated 2012).

The IC50 is the concentration that inhibits the measured activity by half.

For one data set, the system named is HIV-1ROJO. Kind of data set: Antiviral activity in infected PBMCs (reverse transcriptase in supernatant). It counts as cell-based. As to the method:
(§1) The activity of the certain compounds of the invention was evaluated in peripheral blood mononuclear cells (PBMCs) infected with the low passage, clinical isolate HIV-1ROJO to generate a measure of the efficacy of these compounds in acutely infected cells. The use of these normal human cells allows an estimate of the therapeutic index of these compounds to be made. Fresh PBMCs from two donors were pooled and stimulated with PHA-P for 48-72 hours. The cells were then cultured in the presence of IL-2 to maintain the cell division initiated by the mitogenic signal. The virus was added at a multiplicity of infection of 0.1. The cells were cultured for 7 days post infection prior to the evaluation of efficacy. Viral replication was measured by the level of reverse transcriptase activity in the supernatant and cytotoxicity was measured with the MTS assay.

Data set [1] has as its system HCT-116 cells. Kind of data set: Cell cycle analysis with propidium iodide (FACS). The data set is classed as cell-based, human. The conditions noted are these: exposure 24, 48 and 72 hours. The protocol: The percentage of cells in the G1, S and G2/M phases of the cell cycle was determined by staining DNA with propidium iodide and quantifying the number of cells with a 2N or 4N DNA complement by flow cytometry. Alterations in the distribution of cells across the cell cycle in response to exposure to the Cdk inhibitors was evaluated in this manner.
3 sets of HCT-116 cells (100,000 cells/set) were cultured in the presence of a test compound in T-25 flasks according to Table 1 below. Analysis was performed at 24, 48 and 72 hours. Adherent cells were collected by trypsinization, combined with floating cells in Falcon 12×75 flow cytometric tubes, and harvested by centrifugation. The media was decanted from the cell pellet, 100 μl of PI stain was added and the cells were incubated at 37° C. for 20-25 minutes. The cell count was preferably no greater than 2×10^6-4×10^6/ml. An equal volume (100 μl) of PI salt was then added to the cells, which were then incubated at 4° C. for 1-2 hours. The stained cells were analyzed on a Becton Dickinson FACScan flow cytometer. Samples were protected from light.

Data set [2] has as its system HCT-116 cells. Kind of data set: Calcein AM viability assay, HCT-116. It counts as cell-based. Particulars: Homo sapiens, non-protein adjusted, Table 6. As to the method:
The potency of Cdk inhibitors, as measured by loss of cellular viability, was determined with the Calcein AM assay (Molecular Probes). Calcein AM is a substrate of intracellular esterases, which is cleaved only in viable cells to generate a fluorescent product that can be quantified with a fluorescent plate reader. The fluorescent signal is proportional to the number of viable cells, and thus loss of signal in response to the exposure of cells to Cdk inhibitors correlates with a loss of viability. This assay can distinguish cell cycle arrest, in which cells may still by viable, from loss of viability and is thus well suited for the evaluation of Cdk inhibitors. A compound that is a potent cytotoxic, may cause significant loss of cell viability in such assay.
Cellular IC50's were determined in the human colorectal carcinoma cell line, HCT-116, and the normal human fibroblast, IMR90. Protein adjusted IC50's were also determined in HCT-116.
HCT-116 or IMR90 cells were recovered from sub-confluent plates by trypsinization and 1,000 or 4,000 cells, respectively, were plated in 24-well dishes and incubated overnight at 37° C., 5% CO2. […]
A 5 μM Calcein AM solution was prepared by dissolving a 50 μg aliquot of Calcein (Molecular Probes catalog #C3100) in 50 μl DMSO. […] (protected from light) and the fluorescent signal was read on a fluorescent plate reader (excitation 485/20 and emission 530/25).

Data set [3] relates to peripheral blood mononuclear cells (PBMCs). Kind of data set: Cytotoxicity in PBMCs (MTS assay). The data set is classed as cell-based, human. Particulars: read-out: TC50 (μM): 50% cytoxicity (MTS), 7 days. As to the method: as §1
For orientation: Tetrazolium assays rely on reduction of a dye to a coloured formazan, in cell work by metabolically active cells.

Data set [4] deals with HCT-116 cells. Kind of data set: Clonogenic survival assay with HCT-116 cells. It counts as cell-based, human. Particulars: at 100 nM, time-course (FIG. 3). As to the method: This assay was used to determine the concentration of a compound that results irreversible loss of viability after a specified period of exposure. Essentially, cells are exposed to compound for a period of 1, 2 or 5 days, and are then transferred to compound-free growth medium. After continued incubation in the compound-free medium for a number of days, the number of colonies recovered is counted as an estimate of the number of surviving cells.
Media (RPMI-1640, 10% FCS, pen/strep) was pre-warmed to 37° C. in a water bath. Cells were incubated and grown at 37° C., 5% CO2. Cells were recovered by trypsinization from sub-confluent plates and counted using a hemocytometer. 1×10^4 cells were plated in 25 mls of media in a 15 cm tissue culture dish. 14 plates were set up for each test compound, and were incubated overnight at 37° C. The compound was diluted into media at 7 concentrations and the media on the cells was replaced with that containing the test compound. Two plates were set up for each concentration of the compound to be tested, as well as two control plates without compound. […] Colonies were stained with crystal violet solution (0.4% crystal violet, 20% ethanol) for 5 minutes, washed twice with distilled water, and counted.

Turning to `CC(C)c1nn(-c2c(Cl)cc(Cl)cc2Cl)c2nc(Cc3ccc(OCC(C)(C)O)cc3)[nH]c(=O)c12` [Compound A64], the “TI: TC50/IC50” value in the data set on HIV-1ROJO is given as >10. Take `CC(C)N1CCN(C(=O)COc2ccc(-c3[nH]nc4c3C(=O)c3c(NC(=O)NN5CCOCC5)cccc3-4)cc2)CC1.Cl` [Compound A37]: the “effect on cell cycle distribution (PI FACS)” value in the data set on HCT-116 cells [1] is “terminally arrested in G1 and G2, with evidence of apoptosis and endo-reduplication”. `O=C(Nc1cccc2c1C(=O)c1c(-c3ccc(CN4CCCC4CO)cc3)n[nH]c1-2)NN1CCOCC1` (centres unmarked) [Compound B6]: in the data set on HCT-116 cells [2], the IC50 is < 0.1 µM. For the compound `CC(C)c1nn(-c2c(Cl)cc(Cl)cc2Cl)c2nc(Cc3ccc(CNC(CO)CO)n3C)[nH]c(=O)c12.Cl` [Compound C4], in the data set with HIV-1ROJO, the “TI: TC50/IC50” value is listed as >1. The same measure, in the same setting: next, `CC(C)c1nn(-c2c(Cl)cc(Cl)cc2Cl)c2nc(Cc3ccc(OCCO)cc3)[nH]c(=O)c12` [Compound A61]: >10; `CC(C)c1nn(-c2c(Cl)cccc2Cl)c2nc(Cc3ccc(CN4CCCC4)c(O)c3)[nH]c(=O)c12.Cl` [Compound C3]: >10. For `Cc1cn([C@H]2C[C@H](N=[N+]=[N-])[C@@H](CO)O2)c(=O)[nH]c1=O` [AZT, reference compound], the CC50 in data set [3] was > 1 µM. Moreover, the “TI: TC50/IC50” value with HIV-1ROJO is listed as >100. Regarding `COCCN1CCN(Cc2ccc(-c3[nH]nc4c3C(=O)c3c(NC(=O)NN5CCOCC5)cccc3-4)cc2)CC1.Cl.Cl` [Compound B16], the “effect on cell cycle distribution (PI FACS)” value in the data set with HCT-116 cells [1] is “Analogous results”. The “time within which IC50 reached” value in the data set with HCT-116 cells [4] fell in the range of 30 to 60 min. Turning to `CC(C)c1nn(-c2c(Cl)cccc2Cl)c2nc(Cc3ccc(OCCN4CCOCC4)c(O)c3)[nH]c(=O)c12` [Compound A32], the “TI: TC50/IC50” value in the data set on HIV-1ROJO is given as >10.
